Data as given in publication PMC11191352, “Mandelonitrile lyase MDL2-mediated regulation of seed amygdalin and oil accumulation of Prunus Sibirica” (BMC Plant Biology, 2024).

System: T1, PsMDL2
T1 construct: gene MDL2
Test: spectrophotometric mandelonitrile cleavage at […] nm, Lineweaver-Burk
Assay type: biochemical, Prunus sibirica
Settings: 0.1 M citrate-phosphate buffer pH 5.0, 25 °C; mandelonitrile 0.05-4.0 mM; purified recombinant enzyme

N#CC(O)c1ccccc1 (stereo not shown) [mandelonitrile]
Km: 220 µM
